# What was measured:
# thromboxane synthetase = target: T1, thromboxane synthetase (Homo sapiens, UniProt P24557); assay: Thromboxane production in Human Platelet Rich Plasma (collagen-stimulated, TxB2 radioimmunoassay); type: cell-based; conditions: 10 min. incubation, collagen 20 μg/ml, 37° C., read-out: ACTIVITY (IC50 × 10^6 M), inhibition of collagen-induced TxB2 generation
# T1 construct: The citrated blood was centrifuged at 160 g for 10 mins. at 22° C. to obtain platelet rich plasma (prp); endogenous in cells; host or cells: human platelets in citrated platelet rich plasma from healthy male donors
# T1 sequence (P24557 1-533): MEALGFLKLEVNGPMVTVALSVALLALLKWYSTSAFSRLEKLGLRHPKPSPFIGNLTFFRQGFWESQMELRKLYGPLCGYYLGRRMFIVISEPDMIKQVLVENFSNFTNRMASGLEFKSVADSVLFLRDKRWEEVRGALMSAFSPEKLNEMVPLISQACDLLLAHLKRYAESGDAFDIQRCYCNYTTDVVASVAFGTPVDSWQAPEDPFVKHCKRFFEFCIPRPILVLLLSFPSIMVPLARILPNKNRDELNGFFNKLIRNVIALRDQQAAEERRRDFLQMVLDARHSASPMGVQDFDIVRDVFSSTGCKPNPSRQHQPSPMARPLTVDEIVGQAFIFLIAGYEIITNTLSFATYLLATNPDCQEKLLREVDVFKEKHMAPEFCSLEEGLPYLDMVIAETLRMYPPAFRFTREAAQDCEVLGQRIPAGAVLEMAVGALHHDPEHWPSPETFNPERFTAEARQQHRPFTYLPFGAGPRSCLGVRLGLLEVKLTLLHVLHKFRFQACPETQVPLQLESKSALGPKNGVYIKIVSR
# Experimental: (i) inhibition of the generation of thromboxane A2 as determined by radioimmunoassay of its stable metabolite, thromboxane B2 (New England Nuclear, Thromboxane B2 [^3 H] RIA kit, Catalogue No. NEK 007); and
# Various compounds of the present invention were evaluated utilizing an in vitro radioimmunoassay as described in the following Example in order to determine inhibition of thromboxane production.
# Thromboxane production in Human Platelet Rich Plasma
# (a) Platelet rich plasma (prp) preparation
# Human venous blood was collected from healthy male donors, who had denied any medication during the previous 14 days. Nine volumes of blood were mixed with one volume of 3.24% trisodium citrate. The citrated blood was centrifuged at 160 g for 10 mins. at 22° C. to obtain platelet rich plasma (prp). The platelets were then counted on a Coulter counter, and the platelet count was adjusted to 200,000 per μl with plasma.
# (b) Thromboxane generation
# The prp was then dispensed as aliquots into micro-Eppendorf tubes, maintained at 37° C. in a dry bath. The compound to be evaluated was dissolved either in saline, ethanol, or dimethylsulphoxide, and added in duplicate to the prp aliquots to produce a final concentration in the range of 0.1-30 μg/ml. When ethanol or dimethylsulphoxide was used to dissolve the compound, triplicate controls containing the same percentage of ethanol or dimethyl sulphoxide as the test compound was made. The final concentration of organic solvent was never greater than 0.1%, which has been determined to have no effect on TxB2 generation.
# Following a 10 min. incubation withtest compounds or controls, collagen was added to the tubes containing the test compounds to produce a final concentration of 20 μg/ml. The tubes were then whirly-mixed for 15 seconds and replaced in the dry bath for a further 10 minutes. Saline was added to the tubes containing the controls, in lieu of collagen. The reaction was then stopped by rapid centrifugation (15000 g for 3 mins). The plasma was removed and frozen at -29° C. until assayed.
# (c) Assay of Thromboxane B2
# Aliquots (100 μl) of thromboxane TxB2 (plasma extract or standards 50 to 10,000 pg/ml), [^3 H]-TxB2 (approximately 15,000 dpm) and anti-TxB2 antiserum (0.5 μg/100 μl) were combined in […] phosphate buffer+0.1% gelatin+thimerosal (pH 6.8) were incubated for 16 hours at 4° C. The free and protein bound [^3 H]-TxB2 were separated by absorption onto activated charcoal followed by centrifugation. 1.0 ml of the supernatant was added to an aqueous scintillation fluid, and the radioactivity present was counted in a liquid scintillation counter. The binding of [^3 H]-TxB2 in the absence of added TxB2 was approximately 55%. The minimum concentration of TxB2 to be detected accurately in the plasma was 50 pg.ml. Cross reactivity with other prostaglandins was less than 0.005% except with PGD2 wherein the cross reactivity was 1%.
# The plasma samples were initially assayed to give approximation of TxB2 content. The plasma was then appropriately diluted and re-assayed in duplicate to give final values.
# The amount of TxB2 generated by collagen was calculated by subtracting mean values obtained for the saline stimulated platelets from the mean values obtained from the collagen stimulated platelets. The amount of TxB2 generated in the presence of each concentration of test compound was expressed as a % of control and dose response curves were constructed to determine the concentration of test compound which produced 50% inhibition.
# [1] = tested on: Thromboxane Formation (plasma TXB2); assay: Whole Blood Aggregation and Thromboxane Formation In Vivo: Guinea Pig (plasma TXB2 by RIA); conditions: oral (dose not given), ex vivo collagen-stimulated citrated whole blood, normalized to platelet count
# Experimental: Whole Blood Aggregation and Thromboxane Formation In Vivo: Guinea Pig
# All guinea pigs (albino male Dunkin-Bartley, 300-350 g) were fasted overnight before use in the test. The test compound was administered by oral dosing needle to conscious animals. All test compounds, if not water soluble, were administered formulated in a 50% PEG 400/50% carboxymethylcellulose mixture as solution or suspension. Oral dose volumes were 0.1 ml per 100 g body weight.
# Animals were anaesthetized with pentabarbitone sodium (60 mg/kg) given intraperitoneally approximately 10 minutes before the bleed time. Once surgically anaesthetized, the peritoneal cavity was opened, and 4.5 ml blood was drawn into a syringe containing 0.5 ml 3.0% trisodium citrate (9:1 v/v) from the abdominal aorta via a 21/23 gauge butterfly needle. The blood was gently mixed with the citrate in the syringe, and transferred to a screwcap plastic tube. Animals were dosed and bled at one hour intervals.
# Aggregation of the citrated guinea pig whole blood was carried out within 1-2 hours of bleeding, using standard whole blood aggregometry and counting technique. Aliquots (0.55 ml) of citrated whole blood were heated to 37° C. and stirred at 1000 RPM in an aggregometer. An initial 50 μl sample of blood was withdrawn for counting, collagen was added, and additional samples were withdrawn at 1, 2, 3 and 4 minutes. Aggregation was monitored by noting the decrease in single platelet count. Buffer (no collagen) control were included.
# At the end of the four minute incubation for platelet counting, the remainder of each blood sample was allowed to stir for one additional minute. At 5 minutes, 1.0 μl of 19 mg/ml indomethacin (dissolved in dimethylsulfoxide) was added to each sample, resulting in a final indomethacin concentration of 30 ug/ml. The resulting solutions were mixed (15-30 seconds) and cooled on ice. Samples were centrifuged and 150 ul of plasma was removed. The plasma samples were frozen until radioimmunoassay for TXB2. The radioimmunoassay was conducted as previously described at plasma dilutions of 1:20. Two vehicle administered control aminals were run. Groups of at least four animals per test compound were utilized.
# The raw results obtained in the RIA from a 0.1 ml sample of 1:20 diluted plasma were corrected to pg/ml in original plasma sample (×200). The R.I.A. values were then normalized for initial platelet count within the blood sample to 5.0×10^8 ml^-1 (range of platelet count in citrated guinea pig whole blood was varied between the limits […] ml^-1). The test and control results were then compared, and inhibition (%) calculated in the normal way. Statistical analysis is again by Student's t-test.
SMILES,IC50 (thromboxane synthetase) [µM],% INHIBITION (plasma TXB2) [1] [%]
"CCOC(=O)c1cccc(/C=C(/COCc2ccc(OC)cc2)Cn2ccnc2)c1 [9 (E-isomer), ethyl 3-[3-(1H-imidazol-1-yl)-2-[[(4-methoxyphenyl)methoxy)methyl]-1E-propenyl]-benzoate]",403,
"CCOC(=O)c1cccc(/C=C(\COCc2ccc(OC)cc2)Cn2ccnc2)c1 [9 (Z-isomer), ethyl 3-[3-(1H-imidazol-1-yl)-2-[[(4-methoxyphenyl)methoxy]methyl]-1Z-propenyl]benzoate]",11.5,
CCOC(=O)c1ccc(/C=C(/COCc2ccc(OC)cc2)Cn2ccnc2)cc1Cl [10 (E-isomer)],4.78,-18.6
CCOC(=O)c1ccc(/C=C(/COCc2ccc(OC)cc2)Cn2ccnc2)cc1OC [11 (E-isomer)],21.8,-36.0
"COc1ccc(COC/C(=C/c2ccc(C(=O)O)cc2)Cn2ccnc2)cc1 [Example 2, 4-[3-(1H-imidazol-1-yl)-2-[[(4-methoxyphenyl)methoxy]methyl]-1E-propenyl]benzoic acid]",18.2,
"CCOC(=O)CCCCCC=C(COCc1ccc(OC)cc1)Cn1ccnc1 [Example 4, ethyl 9-(1H-imidazol-1-yl)-8-[[(4-methoxyphenyl)methoxy]methyl]-7-nonenoate]",9.3,
"COc1ccc(COCC(=CCCCCCC(=O)O)Cn2ccnc2)cc1 [Example 5, 9-(1H-Imidazol-1-yl)-8-[[(4-methoxyphenyl)methoxy]methyl]-7-nonenoic acid]",4.6,-4.0
"COc1ccc(C=C(COCc2ccc(OC)cc2)Cn2ccnc2)cc1 [Example 7, 1-[3-(4-Methoxyphenyl)-2-[[(4-methoxyphenyl)methoxy]methyl]-2-propenyl]-1H-imidazole]",17.3,

# Stronger by IC50 (thromboxane synthetase), values ahead:
IC50 (thromboxane synthetase) [µM],SMILES,% INHIBITION (plasma TXB2) [1] [%]
1.8,"CCOC(=O)CCCCCC=C(CCCc1ccc(OC)cc1)Cn1ccnc1 [Example 8, Ethyl 8-[(1H-imidazol-1-yl)methyl]-11-(4-methoxyphenyl)-7-undecenoate]",
1.4,"COc1ccc(COCC(=CCCCCC(=O)O)Cn2ccnc2)cc1 [Example 6, 8-(1H-Imidazol-1-yl)-7-[[(4-methoxyphenyl)methoxy]methyl]-6-octenoic acid]",
0.89,"CCOC(=O)c1ccc(/C=C(/COCc2ccc(OC)cc2)Cn2ccnc2)cc1 [1 (E-isomer), ethyl 4-[3-(1H-imidazol-1-yl)-2-[[(4-methoxyphenyl)methoxy]methyl]-1E-propenyl]benzoate]",
0.56,"COc1ccc(COC/C(=C\c2ccc(C(=O)O)cc2)Cn2ccnc2)cc1 [Example 3, 4-[3-(1H-Imidazol-1-yl)-2-[[(4-methoxyphenyl)methoxy]methyl]-1Z-propenyl]benzoic acid]",
0.45,"CCOC(=O)c1ccc(/C=C(\COCc2ccc(F)cc2)Cn2ccnc2)cc1 [13 (Z-isomer), ethyl 4-[2-[[(4-fluorophenyl)methoxy]-methyl]-3-(1H-imidazol-1-yl)-1Z-propenyl]benzoate]",-49.1
0.15,"CCOC(=O)c1ccc(/C=C(\CCCc2ccc(OC)cc2)Cn2ccnc2)cc1 [12 (E-isomer), ethyl 4-[2-[(1H-imidazol-1-yl)-methyl]-5-(4-methoxyphenyl)-1E-pentenyl]benzoate]",-92.3
0.022,"CCOC(=O)c1ccc(/C=C(\COCc2ccc(OC)cc2)Cn2ccnc2)cc1 [1 (Z-isomer), ethyl 4-[3-(1H-imidazol-1-yl)-2-[[(4-methoxyphenyl)methoxy]methyl]-1Z-propenyl]benzoate]",-45.5
